Measurements: patent US10835500B2, “Medicament for accelerated wound healing” (Symrise AG, priority 2014, dated 2020)

Legend:
HaCaT cells = assay: Calcium imaging in HaCaT cells; type: cell-based, human; conditions: for effect of blocker on Sandalore-induced calcium signals: HaCaT cells, EGTA 10 mM calcium-free, SQ-22536 100 μM, MDL-12330A 40 μM, U-73122 10 μM, L-cis-diltiazem 150 μM; for increase of the first amplitude induced by Sandalore after preincubation with gap junction blocker: HaCaT, 1-octanol 500 μM or carbenoxolone 10 μM, Sandalore 500 μM
Description: In the fourth application, saturation occurred at approx. 500 μM (FIG. 9d). The ECR50R value was 430 μM of Sandalore® in the first application and 112 μM of Sandalore® in the fourth application.
The Sandalore®-induced signal cascade in HaCaT cells and primary keratinocytes was pharmacologically characterized using the calcium imaging technique and specific blockers of signal cascade proteins. An investigation was first conducted in order to determine whether the calcium signals are caused by calcium inflow from the extracellular space. For this purpose, a calcium-free extracellular solution was used with a calcium chelator (EGTA) added. […] In order to investigate the role of adenylyl cyclase, the specific blockers SQ-22536 and MDL-12330A were used. […] The efficacy of the blockers was tested in this case with histamine, which activated the PLC signalling pathway (FIG. 11c). […]
In order to characterize the antagonists, HaCaT cells were first repeatedly stimulated with Sandalore® (1 mM). On the third application, costimulation (1:1) with Sandalore® and one of the antagonists took place. […] Based on this, dose-dependent characterization of inhibition was to be carried out. For this purpose, Sandalore® and the antagonists were costimulated with different concentrations.
(§1) Effect of the OR2AT4 ligand Sandalore® on intracellular calcium concentration of cultivated keratinocytes. […] 100 μM of ATP was used at the end of each measurement as a positive control stimulus. Right: Quantitative evaluation of calcium signals in 4-time application of Sandalore® (500 μM). Shown are the mean values of the individual applications including standard error. Mann-Whitney U test. *: p<0.05. C) and D): dose-dependent activation of HaCaT cells in calcium imaging experiments. Shown are the mean amplitudes including standard error at various concentrations in the first (C) and fourth (D) Sandalore® application. Number of cells measured: 0.0125 mM (39), 0.025 mM (30), 0.1 mM (46), 0.5 mM (34), 1 mM (63), 2 mM (41), 10 mM (36).
(§2) A) Representative calcium imaging traces of HaCaT cells (left) and primary keratinocytes (right) incubated with the gap junction blocker 1-octanol (500 μM) and then repeatedly stimulated with Sandalore® (500 μM, horizontal bars) (blue trace). […] 100 μM of ATP was used at the end of each measurement as a positive control stimulus. Quantitative evaluation of HaCaT cells (B) and primary keratinocytes (C) incubated with the gap junction blockers 1-octanol (500 μM) or carbenoxolone (10 μM) and then repeatedly stimulated with Sandalore® (500 μM) or Lyral (1 mM) in calcium imaging experiments. Shown are the mean values of the individual applications including standard error relative to the control measurements (Sandalore® application without blocker). Mann-Whitney U test. Number of cells measured: Sandalore®+1-octanol (HaCaT (110), keratinocytes (26)); Sandalore®+carbenoxolone: HaCaT (74); Lyral+carbenoxolone: HaCaT (43). ***: p<0.001.
Pharmacological characterization of Sandalore®-induced signal cascade in human keratinocytes. A)-D). Shown are representative calcium imaging traces of primary keratinocytes in the presence of a blocker (blue). The horizontal bars correspond to the application times. 100 μM of ATP was used at the end of each measurement as a positive control stimulus. A) Measurement with calcium-free extracellular solution (+10 mM EGTA). B) Measurement with the adenylyl cyclase blocker SQ-22536 (100 μM). C) Use of the phospholipase-C blocker U-73122 (10 μM). 100 μM of histamine was taken as a positive control. D) Measurement with the CNG channel blocker L-cis-diltiazem (150 μM). E) Overview of pharmacological measurement of HaCaT cells and primary keratinocytes (Kera). The mean amplitudes relative to the control measurements (dashed line) are indicated. MDL-12330A (40 μM). […]

primary keratinocytes = assay: Calcium imaging in primary keratinocytes; type: cell-based, human; conditions: for effect of blocker on Sandalore-induced calcium signals: primary keratinocytes, EGTA 10 mM calcium-free, SQ-22536 100 μM, MDL-12330A 40 μM, U-73122 10 μM, L-cis-diltiazem 150 μM
Excerpt: The Sandalore®-induced signal cascade in HaCaT cells and primary keratinocytes was pharmacologically characterized using the calcium imaging technique and specific blockers of signal cascade proteins. An investigation was first conducted in order to determine whether the calcium signals are caused by calcium inflow from the extracellular space. For this purpose, a calcium-free extracellular solution was used with a calcium chelator (EGTA) added. […] In order to investigate the role of adenylyl cyclase, the specific blockers SQ-22536 and MDL-12330A were used. […] The efficacy of the blockers was tested in this case with histamine, which activated the PLC signalling pathway (FIG. 11c).
as §1, §2
Pharmacological characterization of Sandalore®-induced signal cascade in human keratinocytes. A)-D). Shown are representative calcium imaging traces of primary keratinocytes in the presence of a blocker (blue). The horizontal bars correspond to the application times. 100 μM of ATP was used at the end of each measurement as a positive control stimulus. A) Measurement with calcium-free extracellular solution (+10 mM EGTA). B) Measurement with the adenylyl cyclase blocker SQ-22536 (100 μM). C) Use of the phospholipase-C blocker U-73122 (10 μM). 100 μM of histamine was taken as a positive control. D) Measurement with the CNG channel blocker L-cis-diltiazem (150 μM). E) Overview of pharmacological measurement of HaCaT cells and primary keratinocytes (Kera). The mean amplitudes relative to the control measurements (dashed line) are indicated. MDL-12330A (40 μM). EGTA: calcium-free Ringer (HaCaT n=46, Kera n=52), SQ: SQ-22536 (HaCaT n=60, Kera n=26), MDL: MDL-12330A (HaCaT n=69, Kera n=24), U-73122 (HaCaT n=41, Kera n=25), L-cis-D.: L-cis-diltiazem (HaCaT n=41, Kera n=25). Mann-Whitney U test. ***: p<0.001. F) Determination of the cAMP contents of HaCaT cells after stimulation with Sandalore® by means of cAMP-Glo™ assays. The dots show the mean cAMP content including standard error after 10-minute Sandalore® stimulation (1 μM-10,000 μM). Significance was determined between HaCaT cells stimulated with Sandalore® and stimulated with an equivalent volume of DMSO (0.2%). Kruskal-Wallis Test with multiple comparison; n=3 experiments. *: p<0.05.

[1] = molecular target: T1, recombinantly expressed OR2AT4 (Homo sapiens, UniProt A6NND4); assay: Calcium imaging of transiently OR2AT4-transfected Hana3A cells; type: cell-based; conditions: for response rate of the Hana3A cells relative to the Ringer control: 1 mM odorant, 20 s stimulation, OR2AT4-transfected Hana3A cells
T1 construct: expressed in transfected cells; host or cells: Hana3A cells, transient transfection with pcDNA3-OR2AT4 by the calcium phosphate method
T1 sequence (A6NND4 1-320): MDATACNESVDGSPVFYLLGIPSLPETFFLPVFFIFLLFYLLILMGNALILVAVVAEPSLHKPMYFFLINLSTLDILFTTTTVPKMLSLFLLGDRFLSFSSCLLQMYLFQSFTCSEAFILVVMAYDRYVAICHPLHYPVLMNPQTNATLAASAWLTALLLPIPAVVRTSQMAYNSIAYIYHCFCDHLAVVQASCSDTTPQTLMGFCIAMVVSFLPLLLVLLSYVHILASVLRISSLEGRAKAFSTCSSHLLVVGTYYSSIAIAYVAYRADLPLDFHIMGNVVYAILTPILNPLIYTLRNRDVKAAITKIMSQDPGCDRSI
Description: Hana3A cells expressing stable endogenous olfactory transduction factors, which specifically target the incorporation of ORs into the cell membrane and thus improve activation capacity, were used as a heterologous expression system. Moreover, the 20 first N-terminal amino acids of rhodopsins (Rho-tag) were added before the N-terminus of the coding sequence of the OR, also in order to support heterologous expression.
A method established at the Department of Cell Physiology of Ruhr University Bochum for deorphanization studies is calcium imaging, in which activation of an OR by an odorant is visualized by a change in the intracellular calcium concentration of transfected cells using a fluorescent dye [cf. Wetzel et al. in: J. Neurosci. 19, pp. 7426-7433 (1999); Spehr et al. in: Science 299, pp. 2054-2058 (2003); Neuhaus et al. in: J. Biol. Chem. 284, pp. 16218-16225 (2009)]. In this method, the Hana3A cells are briefly (20 s) stimulated with an odorant and selected for odorant screenings of high concentrations (up to 1 mM) in order to confirm activation of ORs weakly expressed in Hana3A cells.
The activation of OR2AT4 by Sandalore® was first investigated by the calcium imaging method.
Odorants can not only activate a receptor, but can also act as antagonists to an OR.
(§3) Determination of receptive field of recombinantly expressed OR2AT4. […] As a control, untransfected Hana3A cells were simulated with Sandalore®. 100 μM of ATP was used at the end of each measurement as a positive control stimulus. […] The mean response rate including standard error of the cells is shown relative to the Ringer control. […] Isobornyl.: isobornyl cyclohexanol; S. öl: sandalwood oil. Kruskal-Wallis test with multiple comparison. *: p<0.05. […] Significance was determined between Hana3A cells transfected with OR2AT4-pcDNA3 and pcDNA3 without an insert. The dots show mean normalized luciferase-activity including standard error. Mann-Whitney U test; n=3 experiments. *: p<0.05; **: p<0.01; ***: p<0.001.
Antagonists of recombinantly expressed OR2AT4. […] 100 μM of ATP was used at the end of each measurement as a positive control stimulus. […] The mean response rate including standard error of the cells is shown relative to the Ringer control. Number of measurements: Ringer (23), Sandalore® (22), Sandalore®+dimetol (11), dimetol (11), Phenirat (14), Sandalore®+Phenirat (22), Oxyphenylon (12), and Sandalore®+Oxyphenylon (20). S: Sandalore®. Kruskal-Wallis test with multiple comparison. *: p<0.05.

[2] = molecular target: T1, recombinantly expressed OR2AT4; assay: CRE dual luciferase assay in OR2AT4-transfected Hana3A cells; type: cell-based; conditions: up to the highest useable concentrations 10-25 μM
Excerpt: In order to verify calcium imaging results and investigate dose-dependent activation of OR2AT4, a further method of deorphanization based on a dual luciferase system was used. In this method, in addition to the OR, two luciferases were introduced into the Hana3A cells. When the expressed OR is activated by an odorant and cAMP is formed in the further course of the signal cascade, this initiates expression of firefly luciferase via CRE (cAMP response elements). The second luciferase, Renilla luciferase, serves as a control for transfection and vitality of the cells. By calculating the two luciferase values, the activation capacity of an OR by an odorant can be determined. In the CRE luciferase assay, the odorant remains on the cells for hours in order to ensure that the luciferase is expressed. Because of the longer incubation time of the odorants and the possibility of activating more receptors in a 96-well format, this method is more sensitive than calcium imaging and is well-suited for establishing dose-response relationships.
For Brahmanol, however, a higher concentration (≥75 μM) was required than for Sandalore® (≥25 μM) in order to produce a significant effect at the receptor (FIG. 3c).
as §3

COc1ccc([C@H]2Sc3ccccc3N(CCN(C)C)C(=O)[C@H]2OC(C)=O)cc1 (relative stereo) [L-cis-diltiazem]
effect of blocker on Sandalore-induced calcium signals (HaCaT cells): significantly reduced | effect of blocker on Sandalore-induced calcium signals (primary keratinocytes): significantly reduced

CCCCCCCCO [1-octanol]
increase of the first amplitude induced by Sandalore after preincubation with gap junction blocker (HaCaT cells): approx. 400% | increase of the first amplitude induced by Sandalore after preincubation with gap junction blocker (primary keratinocytes; keratinocytes, 1-octanol 500 μM, Sandalore 500 μM): ~1000%

O=C(O)CN(CCOCCOCCN(CC(=O)O)CC(=O)O)CC(=O)O [EGTA]
effect of blocker on Sandalore-induced calcium signals (HaCaT cells): significantly reduced | effect of blocker on Sandalore-induced calcium signals (primary keratinocytes): significantly reduced

CC1=CCC(/C=C\C(C)C(C)O)C1(C)C (stereo not drawn) [Ebanol]
response rate of the Hana3A cells relative to the Ringer control [1]: only Brahmanol showed an increased response rate

CC1(CO)CC1CC1CC2CC2(C)C1(C)C (stereo not drawn) [Javanol]
response rate of the Hana3A cells relative to the Ringer control [1]: only Brahmanol showed an increased response rate | activation of OR2AT4 in the luciferase assay [2]: no increased activation of OR2AT4

CC(C)(O)CCCC1=CCC(C=O)CC1 (stereo not drawn) [Lyral]
odorant-induced calcium signals in skin cells (HaCaT cells; Lyral 1 mM): induces calcium signals in skin cells

Cl.c1ccc(C2CCCC2NC2=NCCCCCCCCCCC2)cc1 (stereo not drawn) [MDL-12330A]
effect of blocker on Sandalore-induced calcium signals (HaCaT cells): significant reduction | effect of blocker on Sandalore-induced calcium signals (primary keratinocytes): significant reduction

Nc1ncnc2c1ncn2C1CCCO1 (stereo not drawn) [SQ-22536]
effect of blocker on Sandalore-induced calcium signals (HaCaT cells): significant reduction | effect of blocker on Sandalore-induced calcium signals (primary keratinocytes): significant reduction

COc1ccc2c(c1)CC[C@@H]1[C@@H]2CC[C@]2(C)[C@@H](NCCCCCCN3C(=O)C=CC3=O)CC[C@@H]12 [U-73122]
effect of blocker on Sandalore-induced calcium signals (HaCaT cells): no effect | effect of blocker on Sandalore-induced calcium signals (primary keratinocytes): no effect

CC1(C)[C@@H](OC(=O)CCC(=O)O)CC[C@]2(C)[C@H]3C(=O)C=C4[C@@H]5C[C@@](C)(C(=O)O)CC[C@]5(C)CC[C@@]4(C)[C@]3(C)CC[C@@H]12 [carbenoxolone]
increase of the first amplitude induced by Sandalore after preincubation with gap junction blocker (HaCaT cells): the same result | effect on the Lyral-induced response pattern (HaCaT cells; pre-incubation with blocker 10 μM, Lyral 1 mM): No effect

CC(C)CCCC(C)(C)O [dimetol]
effect on Sandalore-induced calcium signals in coapplication ([1]; coapplication with Sandalore 1:1, 1 mM respectively): no effect | effect of the odorant alone on the Hana3A cells ([1]; odorant alone, 1 mM): no effect | effect on Sandalore-induced calcium signals on coapplication (HaCaT cells; third application, costimulation 1:1 with Sandalore 1 mM): only slightly reduced
